Test results taken from article PMC3117668 (ACS medicinal chemistry letters, 2011).
Values after ≈ are worked out from the molar mass of the structure shown.

What was measured:
H37Rv-TB = assay: MIC re-screen in the presence of 4% BSA and 10% FBS; format: cell-based, Mycobacterium tuberculosis; settings: ATP and MABA readouts
H37Rv TB = assay: Whole cell MIC against H37Rv; format: cell-based; settings: Mycobacterium tuberculosis
M. bovis BCG = assay: microbe, parasite or virus in culture; format: cell-based; settings: Mycobacterium tuberculosis variant bovis BCG, read-out: MIC90 M. bovis BCG

Row | SMILES | MIC shift (H37Rv-TB) | MIC (H37Rv TB) | other results
1 | Cc1ccn2c(C(=O)NCc3ccccc3)c(C)nc2c1 [Compound 1] | less than two fold |  | 
2 | Cc1ccn2c(C(=O)NCc3ccc(Cl)c(Cl)c3)c(C)nc2c1 [Compound 7] |  | 9 to 14 µM (≈ 3.13 to 4.88 µg/mL) | 
3 | Cc1ccn2c(C(=O)NCc3cccc(F)c3)c(C)nc2c1 [Compound 8] |  | ~0.3 µM (≈ 0.0892 µg/mL) | 
4 | COc1cccc(CNC(=O)c2c(C)nc3ncc(C)cn23)c1 [Compound 10] | less than two fold |  | 
5 | CO[C@H]1/C=C/O[C@@]2(C)Oc3c(C)c(O)c4c(O)c(c(/C=N/N5CCN(C)CC5)c(O)c4c3C2=O)NC(=O)/C(C)=C\C=C\[C@H](C)[C@H](O)[C@@H](C)[C@@H](O)[C@@H](C)[C@H](OC(C)=O)[C@@H]1C [RMP, Rifampicin] |  |  | MIC90 (M. bovis BCG): < 0.78 µM
6 | CCOC(=O)c1c(C)nc2cc(C)ccn12 [ethyl 2,7-dimethylimidazo[1,2-a]pyridine-3-carboxylate] |  | ~65 µM (≈ 14.2 µg/mL) | 
